Assay results reported in US20190274974A1, “Treatment of Pain Associated with Trigeminal Neuralgia” (priority 2011, published 2019).
Entries after “also recorded” stand apart in the source; their conditions may differ.

Legend:
[1] = test system: mRNA encoding ATF3, IL-6, BDNF and iNOS; test: Real-time qRT-PCR of mRNA levels in ganglia and central tissues of CCI-ION rats; format: in vivo, rat; conditions: subchronic 10 mg/kg i.p. twice daily; ipsilateral trigeminal ganglion and spinal nucleus of the trigeminal nerve; day 20
[2] = target: recombinantly produced μ-opioid receptor (Homo sapiens, UniProt P35372); conditions: cited from earlier work
[3] = human, in vivo; cited from earlier work
CCI-SN rats = format: in vivo, rat
Method: Rats are anaesthetized with sodium pentobarbital (50 mg/kg i.p.). Unilateral CCI-SN is performed under direct visual control using a Zeiss microscope (10-25×) essentially as described by Bennett and Xie (G. J. Bennett et al., Pain, 33 (1988) 87-107).
Mechanical sensitivity is determined with a graded series of von Frey filaments (Bioseb, Bordeaux, France; bending force: 0.07-60.0 g). The stimuli are applied within the SN territory (midplantar surface of the left hindpaw) three times at the nerve-injured side (ipsilateral, left) and then at the contralateral side for a total of 6 applications of each filament per rat, always beginning with the filament producing the lowest force. The von Frey filaments are applied at least 3 seconds after the rats returned to their initial resting state. For each session, the complete series of von Frey filaments is tested in increasing force order. The minimal force filament causing a hindpaw withdrawal response allows determination of the mechanical response threshold. The 60 g filament is the cut-off threshold.
For studying the effects of acute treatment with tapentadol in CCI-SN rats, tapentadol (1, 3 and 10 mg/kg i.p.) or its vehicle (0.9% NaCl i. p.) was injected acutely 14 days after surgery. Sham-operated rats were treated in parallel. Pressure threshold values to trigger nocifensive responses to von Frey filaments application onto the plantar surface of ipsilateral hindpaw were determined at various times after acute injection of tapentadol or saline. Cut-off was fixed at 60 g pressure.
For studying the effects of subchronic treatment with tapentadol in CCI-SN rats, starting on day 16 (Time=D) after surgery, they received i.p. injections of tapentadol (10 mg/kg, twice daily, at 10:00 AM and 6:00 PM) or saline (at the same day times as the drug) for four days. On the following day (day 20 after surgery), both tapentadol- and saline-pretreated CCI-SN rats were i.p. injected with Tapentadol (10 mg/kg; Time=0) and then subjected to von Frey filaments'test applied to ipsilateral hindpaw for determination of pressure threshold values at various times thereafter.
In a second part of this study (B), unilateral chronic constriction injury to the sciatic nerve was performed two weeks before acute treatment with reboxetine (10 mg/kg i.p.), tapentadol (10 mg/kg i.p.) or saline (0.5 ml i.p./rat). Pressure threshold values were then determined at various times using von Frey filaments test applied to ipsilateral hindpaw.
Morphine (1, 3 and 10 mg/kg s.c.) or its vehicle (0.9% NaCl) was injected acutely 14 days after CCI-SN surgery. Sham-operated rats were treated in parallel. Pressure threshold values to trigger nocifensive responses to von Frey filaments application onto the plantar surface of ipsilateral hindpaw were determined at various times after acute injection of morphine or saline.
14 days after CCI-SN surgery, rats were injected with reboxetine (10 mg/kg i.p.) or its vehicle (0.9% NaCl) followed, 15 min later, by morphine (1 mg/kg s.c.) or its vehicle (0.9% NaCl) and subjected to von Frey filament tests for the following 4 hours. Sham-operated rats were treated in parallel.
The results are depicted in FIG. 11.

BDNF-induced allodynia = test: Mechanical allodynia induced by intrathecal administration of BDNF in healthy rats (von Frey filaments test); format: in vivo, rat
Method: In a first part of this study, BDNF (0.3 ng in 25 μl of saline per rat) or saline (25 μl) was injected intrathecally in adult male rats slightly anesthetized with isoflurane (according to Mestre et al. (1994), J. Pharmacol. Toxicol. Meth., 32, 197-200), and animals were subjected to von Frey filaments test applied to hindpaws at various times thereafter.
In a second part of this study, tapentadol (3 or 10 mg/kg i.p.) or saline was administered to rats on the 7th day (Time=0 on abscissa) after intrathecal injection of BDNF (Time=C) as described above. Pressure threshold values were determined using von Frey filaments test applied to hindpaws.
In a first part of this study (A), reboxetine (10 mg/kg i.p.; mesylate, Ascent Scientific, Bristol, UK), tapentadol (10 mg/kg i.p.) or saline (0.5 ml i.p./rat) was injected on the 7th day after intrathecal administration of BDNF (0.3 ng in 25 μl of saline per rat). Pressure threshold values were determined at various times thereafter using von Frey filaments test applied to hindpaws.

Chain of recombinantly produced μ-opioid receptor (P35372 whole entry): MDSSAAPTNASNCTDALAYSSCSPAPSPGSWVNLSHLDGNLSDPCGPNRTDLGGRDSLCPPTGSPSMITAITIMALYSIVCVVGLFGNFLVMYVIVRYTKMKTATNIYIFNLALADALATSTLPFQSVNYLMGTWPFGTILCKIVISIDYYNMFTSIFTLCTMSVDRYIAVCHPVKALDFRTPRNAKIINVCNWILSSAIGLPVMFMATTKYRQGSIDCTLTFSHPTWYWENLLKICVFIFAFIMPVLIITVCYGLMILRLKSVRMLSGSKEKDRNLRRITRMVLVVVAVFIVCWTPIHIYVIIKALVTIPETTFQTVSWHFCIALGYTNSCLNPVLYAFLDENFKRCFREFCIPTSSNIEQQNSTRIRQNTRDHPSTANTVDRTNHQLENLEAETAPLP

Q: Which “ATF3, IL-6, BDNF and iNOS mRNA levels in CCI-ION rats” value [1] does the source give for `CC[C@@H](c1cccc(O)c1)[C@@H](C)CN(C)C` [tapentadol, (−)-(1R,2R)-3-(3-dimethylamino-1-ethyl-2-methyl-propyl)-phenol] here?
A: Its value is “no significant effects”.

Q: And the “affinity to the μ-opioid receptor, times less than that of morphine” value [2]?
A: Its value is 18 times.

Q: What about the “pain-alleviating action relative to morphine” value [3] of the same compound?
A: Its value is “two to three times less”.

Q: What about the “increase in pressure threshold value” (CCI-SN rats; 1 mg/kg i.p., acute, first 15-30 min after injection, non significant) of the same compound?
A: The value was “approximately 40%”.

Q: What about the “effect on pressure threshold values” (CCI-SN rats; 3 mg/kg i.p., acute) of the same compound?
A: Its value is “increased pressure threshold values, but to a lower extent than 10 mg/kg i.p”.

Q: And the “anti-allodynic effect of last administration after subchronic pretreatment (sensitization/desensitization)” value (CCI-SN rats; 10 mg/kg i.p. twice daily for four days or saline, then 10 mg/kg i.p. on day 20)?
A: The value was “produced the same anti-allodynic effects in saline-pretreated and tapentadol-pretreated rats; also recorded: neither in CCI-SN rats nor in those with CCI-ION, any sign of sensitization or desensitization”.

Q: What about the “pressure threshold values compared to healthy control values” (CCI-SN rats; 10 mg/kg i.p., acute, 15-30 min after administration) of the same compound?
A: The value was “no longer differed from healthy control values”.

Q: What about the “mechanical allodynia compared to saline-treated CCI-SN rats” value (CCI-SN rats; 10 mg/kg i.p., acute, 90 min after injection) of the same compound?
A: Its value is “did not significantly differ from that measured in saline-treated CCI-SN rats”.

Q: And the “pressure threshold values after the last injection under subchronic treatment” value (CCI-SN rats; 10 mg/kg i.p., first 45 min after last injection)?
A: Its value is “markedly increased pressure threshold values”.

Q: What about the “dose dependence of anti-allodynic effect” value (CCI-SN rats; 1-10 mg/kg i.p. dose range, acute) of the same compound?
A: The value was “clear dose-dependent anti-allodynic effect”.

Q: What about the “time at which the maximal increase in pressure threshold was reached” value (BDNF-induced allodynia; 10 mg/kg i.p.) of the same compound?
A: Its value is 15 min.

Q: What about the “pressure threshold values compared to untreated healthy rats” value (BDNF-induced allodynia; 10 mg/kg i.p., 15-30 min after injection) of the same compound?
A: Its value is “return of pressure threshold values up to levels determined in untreated healthy rats”.

Q: What about the “reversal of BDNF-induced allodynia, dose dependence” value (BDNF-induced allodynia; 3 or 10 mg/kg i.p., 7th day after intrathecal BDNF) of the same compound?
A: Its value is “reversed BDNF-induced allodynia in a dose-dependent manner”.
